Assay results reported in patent publication US9783532B2, “Molecules having certain pesticidal utilities, and intermediates, compositions, and processes related thereto” (Dow AgroSciences LLC, priority 2013, dated 2017).

How the values were obtained:
Type in all cases: in vivo
[1] = tested on: Beet Armyworm (Spodoptera exigua) ("BAW"); experiment: Bioassay on beet armyworm (BAW), 128-well diet tray assay; conditions: for mortality at 50 µg/cm2: 168 h, 50 μg/cm^2 on artificial diet, second instar BAW larvae, 25° C., five to seven days, average of eight wells, read-out: BAW % Control (or Mortality) rating; for pest or weed control at 50 µg/cm2: Table ABC (PC), activity rating class, read-out: BAW (Biological Results, Insect species)
Outline: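 Second-instar larvae (one to five per well) were placed on artificial diet surface-treated with 50 μg/cm^2 compound applied in 90:10 acetone-water and dried, eight wells per compound. Held at 25° C., 14:10 light-dark for five to seven days; percent mortality was scored per well and averaged over the eight wells.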

[2] = tested on: Yellow Fever Mosquito "YFM" (Aedes aegypti); conditions: about 1 day-old larvae, 96-well plate, room temperature, 3 days, mortality
Experimental: Certain molecules disclosed in this document were tested against YFM using procedures described in the following paragraph. In the reporting of the results, the “YFM Rating Table” was used (See Table Section).
Master plates containing 400 μg of a molecule dissolved in 100 μL of dimethyl sulfoxide (DMSO) (equivalent to a 4000 ppm solution) are used. A master plate of assembled molecules contains 15 μL per well. To this plate, 135 μL of a 90:10 wateracetone mixture is added to each well. A robot (Biomek® NXP Laboratory Automation Workstation) is programmed to dispense 15 μL aspirations from the master plate into an empty 96-well shallow plate (“daughter” plate). There are 6 reps (“daughter” plates) created per master. The created daughter plates are then immediately infested with YFM larvae.
The day before plates are to be treated, mosquito eggs are placed in Millipore water containing liver powder to begin hatching (4 g. into 400 mL). After the daughter plates are created using the robot, they are infested with 220 μL of the liver powder/larval mosquito mixture (about 1 day-old larvae). After plates are infested with mosquito larvae, a non-evaporative lid is used to cover the plate to reduce drying. Plates are held at room temperature for 3 days prior to grading. After 3 days, each well is observed and scored based on mortality.

[3] = tested on: Cabbage Looper (Trichoplusia ni) ("CL"); experiment: Bioassay on cabbage looper (CL), 128-well diet tray assay; conditions: Table ABC (PC), activity rating class, read-out: CL (Biological Results, Insect species)
Outline: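 Second-instar larvae (one to five per well) placed on artificial diet surface-treated with 50 μg/cm^2 compound in 90:10 acetone-water, dried before infestation. Held 25 °C, 14:10 light-dark for five to seven days; percent mortality scored per well and averaged over eight wells.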

| Structure (SMILES) | mortality at 50 µg/cm2 [1] [%] | YFM % Control (or Mortality) rating [2] | pest or weed control at 50 µg/cm2 [1] [%] | pest or weed control at 50 µg/cm2 [3] [%] |
| --- | --- | --- | --- | --- |
| CCC(CNC(=O)/N=C1\SCC(=O)N1c1ccccc1C(C)C)c1ccc(-c2ncn(-c3ccc(OC(F)(F)F)cc3)n2)cc1 (stereo not shown) [P209, (Z)-1-(3-(2-isopropylphenyl)-4-oxothiazolidin-2-ylidene)-3-(2-(4-(1-(4-(trifluoromethoxy)phenyl)-1H-1,2,4-triazol-3-yl)phenyl)butyl)urea] | 50 to 100 | A (80-100) |  |  |
| CCC(CNC(=O)/N=C1\SCC(=O)N1c1cc(OC)ccc1C(C)C)c1ccc(-c2ncn(-c3ccc(OC(F)(F)F)cc3)n2)cc1 (stereo not shown) [P683, (Z)-1-(3-(2-isopropyl-5-methoxyphenyl)-4-oxothiazolidin-2-ylidene)-3-(2-(4-(1-(4-(trifluoromethoxy)phenyl)-1H-1,2,4-triazol-3-yl)phenyl)butyl)urea] | 50 to 100 | A (80-100) |  |  |
| Cc1ccc(C(C)C)c(NC(=S)NC(=O)NCCCc2cccc(-c3ncn(-c4ccc(OC(F)(F)F)cc4)n3)c2)c1 [PC124, 1-[(2-isopropyl-5-methyl-phenyl)carbamothioyl]-3-[3-[3-[1-[4-(trifluoromethoxy)phenyl]-1H-1,2,4-triazol-3-yl]phenyl]propyl]urea] |  |  | 50 to 100 | 50 to 100 |
| CCCc1ccc(C)cc1NC(=S)NC(=O)NCCCc1cccc(-c2ncn(-c3ccc(OC(F)(F)F)cc3)n2)c1 [PC125, 1-[(5-methyl-2-propyl-phenyl)carbamothioyl]-3-[3-[3-[1-[4-(trifluoromethoxy)phenyl]-1H-1,2,4-triazol-3-yl]phenyl]propyl]urea] |  |  | 50 to 100 | 50 to 100 |
| CCc1cccc(C)c1NC(=S)NC(=O)NCCCc1cccc(-c2ncn(-c3ccc(OC(F)(F)F)cc3)n2)c1 [PC127, 1-[(2-ethyl-6-methyl-phenyl)carbamothioyl]-3-[3-[3-[1-[4-(trifluoromethoxy)phenyl]-1H-1,2,4-triazol-3-yl]phenyl]propyl]urea] |  |  | 50 to 100 | 50 to 100 |
| Cc1ccc(NC(=S)NC(=O)NCCCc2cccc(-c3ncn(-c4ccc(OC(F)(F)F)cc4)n3)c2)c(C(C)C)c1 [PC128, 1-[(2-isopropyl-4-methyl-phenyl)carbamothioyl]-3-[3-[3-[1-[4-(trifluoromethoxy)phenyl]-1H-1,2,4-triazol-3-yl]phenyl]propyl]urea] |  |  | 50 to 100 | 50 to 100 |
| CC(C)c1cc(F)ccc1NC(=S)NC(=O)NCCCc1cccc(-c2ncn(-c3ccc(OC(F)(F)F)cc3)n2)c1 [PC129, 1-[(4-fluoro-2-isopropyl-phenyl)carbamothioyl]-3-[3-[3-[1-[4-(trifluoromethoxy)phenyl]-1H-1,2,4-triazol-3-yl]phenyl]propyl]urea] |  |  | 50 to 100 | 50 to 100 |
| COc1ccc(NC(=S)NC(=O)NCCCc2cccc(-c3ncn(-c4ccc(OC(F)(F)F)cc4)n3)c2)c(C)c1 [PC131, 1-[(4-methoxy-2-methyl-phenyl)carbamothioyl]-3-[3-[3-[1-[4-(trifluoromethoxy)phenyl]-1H-1,2,4-triazol-3-yl]phenyl]propyl]urea] |  |  | 50 to 100 | 50 to 100 |
| Cc1ccccc1NC(=S)NC(=O)NCCCCc1ccc(-c2ncn(-c3ccc(OC(F)(F)F)cc3)n2)cc1 [PC144, 1-(o-tolylcarbamothioyl)-3-[4-[4-[1-[4-(trifluoromethoxy)phenyl]-1H-1,2,4-triazol-3-yl]phenyl]butyl]urea] |  |  | 50 to 100 | 50 to 100 |
| CCc1ccccc1NC(=S)NC(=O)NCCCCc1ccc(-c2ncn(-c3ccc(OC(F)(F)F)cc3)n2)cc1 [PC145, 1-[(2-ethylphenyl)carbamothioyl]-3-[4-[4-[1-[4-(trifluoromethoxy)phenyl]-1H-1,2,4-triazol-3-yl]phenyl]butyl]urea] |  |  | 50 to 100 | 50 to 100 |
| CC(C)c1ccccc1NC(=S)NC(=O)NCCCCc1ccc(-c2ncn(-c3ccc(OC(F)(F)F)cc3)n2)cc1 [PC146, 1-[(2-isopropylphenyl)carbamothioyl]-3-[4-[4-[1-[4-(trifluoromethoxy)phenyl]-1H-1,2,4-triazol-3-yl]phenyl]butyl]urea] |  |  | 50 to 100 | 50 to 100 |
| Cc1ccc(C(C)C)c(NC(=S)NC(=O)NCCCCc2ccc(-c3ncn(-c4ccc(OC(F)(F)F)cc4)n3)cc2)c1 [PC150, 1-[(2-isopropyl-5-methyl-phenyl)carbamothioyl]-3-[4-[4-[1-[4-(trifluoromethoxy)phenyl]-1H-1,2,4-triazol-3-yl]phenyl]butyl]urea] |  |  | 50 to 100 | 50 to 100 |
| Cc1cccc(C)c1NC(=S)NC(=O)NCCCCc1ccc(-c2ncn(-c3ccc(OC(F)(F)F)cc3)n2)cc1 [PC152, 1-[(2,6-dimethylphenyl)carbamothioyl]-3-[4-[4-[1-[4-(trifluoromethoxy)phenyl]-1H-1,2,4-triazol-3-yl]phenyl]butyl]urea] |  |  | 50 to 100 | 50 to 100 |
| Cc1ccc(NC(=S)NC(=O)NCCCCc2ccc(-c3ncn(-c4ccc(OC(F)(F)F)cc4)n3)cc2)c(C(C)C)c1 [PC154, 1-[(2-isopropyl-4-methyl-phenyl)carbamothioyl]-3-[4-[4-[1-[4-(trifluoromethoxy)phenyl]-1H-1,2,4-triazol-3-yl]phenyl]butyl]urea] |  |  | 50 to 100 | 50 to 100 |
| CC(C)c1cc(F)ccc1NC(=S)NC(=O)NCCCCc1ccc(-c2ncn(-c3ccc(OC(F)(F)F)cc3)n2)cc1 [PC155, 1-[(4-fluoro-2-isopropyl-phenyl)carbamothioyl]-3-[4-[4-[1-[4-(trifluoromethoxy)phenyl]-1H-1,2,4-triazol-3-yl]phenyl]butyl]urea] |  |  | 50 to 100 | 50 to 100 |
| COc1ccc(C(C)C)c(NC(=S)NC(=O)NCCCCc2ccc(-c3ncn(-c4ccc(OC(F)(F)F)cc4)n3)cc2)c1 [PC156] |  |  | 50 to 100 | 50 to 100 |
| Cc1ccc(C(C)C)c(NC(=S)NC(=O)NCCCCc2ccc(-c3ncn(-c4ccc(C(F)(F)F)cc4)n3)cc2)c1 [PC159, 1-[(2-isopropyl-5-methyl-phenyl)carbamothioyl]-3-[4-[4-[1-[4-(trifluoromethyl)phenyl]-1H-1,2,4-triazol-3-yl]phenyl]butyl]urea] |  |  | 50 to 100 | 50 to 100 |
| Cc1ccc(C(C)C)c(NC(=S)NC(=O)NCCC#Cc2ccc(-c3ncn(-c4ccc(OC(F)(F)F)cc4)n3)cc2)c1 [PC160, 1-[(2-isopropyl-5-methyl-phenyl)carbamothioyl]-3-[4-[4-[1-[4-(trifluoromethoxy)phenyl]-1H-1,2,4-triazol-3-yl]phenyl]but-3-ynyl]urea] |  |  | 50 to 100 | 50 to 100 |
| Cc1ccccc1NC(=S)NC(=O)NCCCCc1cccc(-c2ncn(-c3ccc(OC(F)(F)F)cc3)n2)c1 [PC170, 1-(o-tolylcarbamothioyl)-3-[4-[3-[1-[4-(trifluoromethoxy)phenyl]-1H-1,2,4-triazol-3-yl]phenyl]butyl]urea] |  |  | 0 to 50 | 50 to 100 |
| CCc1ccccc1NC(=S)NC(=O)NCCCCc1cccc(-c2ncn(-c3ccc(OC(F)(F)F)cc3)n2)c1 [PC171, 1-[(2-ethylphenyl)carbamothioyl]-3-[4-[3-[1-[4-(trifluoromethoxy)phenyl]-1H-1,2,4-triazol-3-yl]phenyl]butyl]urea] |  |  | 0 to 50 | 50 to 100 |
| CC(C)c1ccccc1NC(=S)NC(=O)NCCCCc1cccc(-c2ncn(-c3ccc(OC(F)(F)F)cc3)n2)c1 [PC172, 1-[(2-isopropylphenyl)carbamothioyl]-3-[4-[3-[1-[4-(trifluoromethoxy)phenyl]-1H-1,2,4-triazol-3-yl]phenyl]butyl]urea] |  |  | 50 to 100 | 50 to 100 |
| Cc1ccc(C(C)C)c(NC(=S)NC(=O)NCCCCc2cccc(-c3ncn(-c4ccc(OC(F)(F)F)cc4)n3)c2)c1 [PC176, 1-[(2-isopropyl-5-methyl-phenyl)carbamothioyl]-3-[4-[3-[1-[4-(trifluoromethoxy)phenyl]-1H-1,2,4-triazol-3-yl]phenyl]butyl]urea] |  |  | 0 to 50 | 50 to 100 |
| CCc1cccc(C)c1NC(=S)NC(=O)NCCCCc1cccc(-c2ncn(-c3ccc(OC(F)(F)F)cc3)n2)c1 [PC179, 1-[(2-ethyl-6-methyl-phenyl)carbamothioyl]-3-[4-[3-[1-[4-(trifluoromethoxy)phenyl]-1H-1,2,4-triazol-3-yl]phenyl]butyl]urea] |  |  | 0 to 50 | 50 to 100 |
